# Measured values reported in PMC9663175, “Cryo-EM structures reveal the activation and substrate recognition mechanism of human enteropeptidase” (Nature Communications, 2022).
# Target: human enteropeptidase (hEP), enterokinase (Homo sapiens, UniProt P98073)
# Experiment: cryo-EM structure of inhibited hEP-core ([…] Å); SPR affinity; enzyme activity inhibition
# Format: binding
# Set-up: gene TMPRSS15; hEP-core resolved; SPR: commercial hEP
# Chain of human enteropeptidase (hEP), enterokinase (P98073 182-784): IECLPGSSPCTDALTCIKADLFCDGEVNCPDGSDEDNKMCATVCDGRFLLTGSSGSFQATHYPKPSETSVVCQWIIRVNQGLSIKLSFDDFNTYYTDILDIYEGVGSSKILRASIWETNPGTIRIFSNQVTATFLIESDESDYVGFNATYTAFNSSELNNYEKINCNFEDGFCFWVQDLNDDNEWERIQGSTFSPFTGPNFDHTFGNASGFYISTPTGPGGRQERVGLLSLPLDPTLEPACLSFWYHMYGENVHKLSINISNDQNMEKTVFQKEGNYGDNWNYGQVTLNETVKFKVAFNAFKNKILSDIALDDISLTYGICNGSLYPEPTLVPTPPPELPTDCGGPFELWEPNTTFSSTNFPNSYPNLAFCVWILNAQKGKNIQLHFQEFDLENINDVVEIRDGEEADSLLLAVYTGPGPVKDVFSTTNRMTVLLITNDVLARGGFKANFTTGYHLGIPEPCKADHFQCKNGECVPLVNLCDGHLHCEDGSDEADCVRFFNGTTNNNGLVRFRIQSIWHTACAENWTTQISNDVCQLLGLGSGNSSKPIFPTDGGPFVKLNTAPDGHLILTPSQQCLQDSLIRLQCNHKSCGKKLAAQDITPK
# Chain of human enteropeptidase (hEP), enterokinase (P98073 785-1019): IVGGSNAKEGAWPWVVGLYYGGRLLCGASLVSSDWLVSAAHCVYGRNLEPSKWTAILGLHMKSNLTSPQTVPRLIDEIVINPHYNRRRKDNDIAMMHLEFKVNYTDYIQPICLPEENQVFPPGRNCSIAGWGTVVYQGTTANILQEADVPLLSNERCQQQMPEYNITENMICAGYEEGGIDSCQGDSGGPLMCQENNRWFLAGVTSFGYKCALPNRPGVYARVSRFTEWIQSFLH
structure (smiles),measurement,value
N=C(N)c1ccc2cc(OC(=O)c3ccc(N=C(N)N)cc3)ccc2c1 [nafamostat],Kd,95.1 µM
